Measurements from patent publication US9567336B2, “Conjugated TLR7 and/or TLR8 and TLR2 agonists” (CAYLA, priority 2012, dated 2017).

What was measured:
Type in all cases: cell-based
[1] = molecular target: T1, human TLR7 (Homo sapiens, UniProt Q9NYK1); test: HEK-Blue hTLR7 NF-κB/AP-1 SEAP reporter cell assay; details: HEK-Blue hTLR7 reporter cells, 10 μg/mL to 10 pg/ml, 24 hours, OD at 655 nm; FIGS. 1A, 1B
T1 construct: host or cells: HEK293 (HEK-Blue hTLR7)
T1 sequence (Q9NYK1 27-1049): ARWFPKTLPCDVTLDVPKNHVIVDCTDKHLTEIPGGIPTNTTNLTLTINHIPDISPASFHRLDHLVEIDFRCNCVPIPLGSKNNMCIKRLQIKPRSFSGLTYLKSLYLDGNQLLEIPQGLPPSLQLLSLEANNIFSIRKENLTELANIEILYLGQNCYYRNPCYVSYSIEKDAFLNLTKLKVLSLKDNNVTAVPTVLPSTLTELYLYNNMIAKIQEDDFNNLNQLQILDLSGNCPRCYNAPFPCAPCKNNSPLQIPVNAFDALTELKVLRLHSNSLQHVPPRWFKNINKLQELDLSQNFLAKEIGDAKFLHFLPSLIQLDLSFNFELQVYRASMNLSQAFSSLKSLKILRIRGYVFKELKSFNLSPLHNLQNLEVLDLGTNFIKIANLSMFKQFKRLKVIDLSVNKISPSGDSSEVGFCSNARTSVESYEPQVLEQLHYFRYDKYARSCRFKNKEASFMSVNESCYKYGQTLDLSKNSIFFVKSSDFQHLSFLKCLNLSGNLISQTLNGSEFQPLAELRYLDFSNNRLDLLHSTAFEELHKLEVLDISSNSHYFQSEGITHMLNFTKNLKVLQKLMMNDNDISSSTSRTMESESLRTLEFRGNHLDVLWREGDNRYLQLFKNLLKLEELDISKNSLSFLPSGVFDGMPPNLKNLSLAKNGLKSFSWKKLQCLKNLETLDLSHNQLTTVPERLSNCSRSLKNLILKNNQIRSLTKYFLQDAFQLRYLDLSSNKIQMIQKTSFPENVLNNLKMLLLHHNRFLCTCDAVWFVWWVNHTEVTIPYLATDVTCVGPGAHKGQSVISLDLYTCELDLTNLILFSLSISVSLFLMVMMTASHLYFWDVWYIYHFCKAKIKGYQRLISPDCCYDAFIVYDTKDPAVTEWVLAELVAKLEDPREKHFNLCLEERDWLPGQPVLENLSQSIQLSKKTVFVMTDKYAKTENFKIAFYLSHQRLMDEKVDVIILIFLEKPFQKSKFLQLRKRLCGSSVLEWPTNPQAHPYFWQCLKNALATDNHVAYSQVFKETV
Method: (§1) Some conjugated compounds of the invention were tested for their ability to activate TLR7 and TLR2 receptor signaling. Cell-based assays were carried out using TLR7 and TLR2 reporter cell lines (InvivoGen). The reporter cell lines are engineered HEK293 cells, a human embryonic kidney cell line (ATCC, CRL-1573) that stably express either murine TLR7 (HEK-Blue™ mTLR7) or human TLR7 (HEK-Blue™ hTLR7) or murine TLR2 (HEK-Blue™ mTLR2) or human TLR2 (HEK-Blue™ hTLR2) with an NF-κB-inducible secreted embryonic alkaline phosphatase (SEAP) as the reporter gene. The SEAP reporter gene is placed under the control of the NF-κB and AP-inducible promoter. Stimulation with the corresponding TLR ligand activates NF-κB and AP-1, which induces the production of SEAP. Detection of SEAP is measured following culturing cells in HEK-Blue™ Detection media (InvivoGen). HEK-Blue™ Detection contains a SEAP substrate, which upon hydrolysis by SEAP produces a colorimetric change allowing for detection of SEAP as the protein is secreted. […] These assays were carried out using RAW-Blue™ Cells (InvivoGen), derived from RAW 264.7 mouse leukemic monocytic macrophage cell line (ATCC, CRL 2278) stably overexpressing a NF-κB/AP-1 inducible SEAP reporter constructs.
(§2) To perform the assay, cells were seeded on 96 well microliter plates at 50,000 or 100,000 cells per well for HEK-Blue™ Cells and RAW-Blue™ Cells respectively, and cultured at 37° C. in the presence of the conjugated compounds. The conjugated compounds were prepared as follows: First, stock solutions of the small molecule conjugated compounds of the invention were prepared in ethanol or water to a concentration of 10 mg/ml. A working dilution of the conjugated TLR7-TLR2 small molecules was made up in water and added to cells at a final range of concentrations from 10 μg/mL to 10 pg/ml. The working dilutions of the conjugated TLR7-TLR2 small molecules as the stated concentrations were directly added to the reporter cell lines and incubated at 37° C. for 24 hours. After 24 hours of incubation, the effect on reporter gene activity was determined by reading the OD at 655 nm using iMark™ Microplate Reader (BIO-RAD).
(§3) The conjugated compounds were tested alone for their ability to specifically activate TLR7 and TLR2, alongside the known TLR7 activators R848 or CL264 (InvivoGen) and the TLR2 agonists Pam2CSK4 or Pam3CSK4 (InvivoGen). The specificity of the TLR activity was determined by use of reporter cell lines to the other TLRs (data not shown). […] The molecules show a tendency to activate mouse TLR7 with greater sensitivity than human TLR7. […] Furthermore, dose-dependent responses of the conjugated compounds indicate significant TLR activities of TLR7 and TLR2 compared to the corresponding controls.

[2] = molecular target: T2, human TLR2 (Homo sapiens, UniProt O60603); test: HEK-Blue hTLR2 NF-κB/AP-1 SEAP reporter cell assay; details: HEK-Blue hTLR2 reporter cells, 10 μg/mL to 10 pg/ml, 24 hours, OD at 655 nm; FIGS. 3A, 3B
T2 construct: host or cells: HEK293 (HEK-Blue hTLR2)
Method: as §1, §2, §3

[3] = molecular target: T3, murine TLR2 (Mus musculus, UniProt Q9QUN7); test: HEK-Blue mTLR2 NF-κB/AP-1 SEAP reporter cell assay; details: HEK-Blue mTLR2 reporter cells, 10 μg/mL to 10 pg/ml, 24 hours, OD at 655 nm; FIG. 4
T3 construct: host or cells: HEK293 (HEK-Blue mTLR2)
Method: as §1, §2, §3

T2 sequence (O60603 21-784): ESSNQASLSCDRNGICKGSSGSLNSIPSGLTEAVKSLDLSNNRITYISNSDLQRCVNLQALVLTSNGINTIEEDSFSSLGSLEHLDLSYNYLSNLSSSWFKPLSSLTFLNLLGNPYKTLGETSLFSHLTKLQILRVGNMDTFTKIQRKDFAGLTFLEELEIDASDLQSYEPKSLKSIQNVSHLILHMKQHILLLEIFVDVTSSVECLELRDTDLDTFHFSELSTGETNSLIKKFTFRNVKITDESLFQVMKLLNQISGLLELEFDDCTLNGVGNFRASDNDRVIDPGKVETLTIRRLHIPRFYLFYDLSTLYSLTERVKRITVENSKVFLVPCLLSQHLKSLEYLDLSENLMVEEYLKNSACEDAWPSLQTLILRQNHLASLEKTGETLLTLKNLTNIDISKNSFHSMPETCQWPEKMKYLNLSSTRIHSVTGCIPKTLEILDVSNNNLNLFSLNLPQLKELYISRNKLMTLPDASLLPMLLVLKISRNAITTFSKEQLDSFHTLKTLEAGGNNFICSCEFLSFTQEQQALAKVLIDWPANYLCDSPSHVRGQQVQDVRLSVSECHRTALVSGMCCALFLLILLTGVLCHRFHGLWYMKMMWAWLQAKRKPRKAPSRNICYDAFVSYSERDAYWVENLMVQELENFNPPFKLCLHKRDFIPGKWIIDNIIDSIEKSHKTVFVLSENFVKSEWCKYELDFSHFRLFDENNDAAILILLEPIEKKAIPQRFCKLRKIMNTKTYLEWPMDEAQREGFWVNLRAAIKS
T3 sequence (Q9QUN7 25-784): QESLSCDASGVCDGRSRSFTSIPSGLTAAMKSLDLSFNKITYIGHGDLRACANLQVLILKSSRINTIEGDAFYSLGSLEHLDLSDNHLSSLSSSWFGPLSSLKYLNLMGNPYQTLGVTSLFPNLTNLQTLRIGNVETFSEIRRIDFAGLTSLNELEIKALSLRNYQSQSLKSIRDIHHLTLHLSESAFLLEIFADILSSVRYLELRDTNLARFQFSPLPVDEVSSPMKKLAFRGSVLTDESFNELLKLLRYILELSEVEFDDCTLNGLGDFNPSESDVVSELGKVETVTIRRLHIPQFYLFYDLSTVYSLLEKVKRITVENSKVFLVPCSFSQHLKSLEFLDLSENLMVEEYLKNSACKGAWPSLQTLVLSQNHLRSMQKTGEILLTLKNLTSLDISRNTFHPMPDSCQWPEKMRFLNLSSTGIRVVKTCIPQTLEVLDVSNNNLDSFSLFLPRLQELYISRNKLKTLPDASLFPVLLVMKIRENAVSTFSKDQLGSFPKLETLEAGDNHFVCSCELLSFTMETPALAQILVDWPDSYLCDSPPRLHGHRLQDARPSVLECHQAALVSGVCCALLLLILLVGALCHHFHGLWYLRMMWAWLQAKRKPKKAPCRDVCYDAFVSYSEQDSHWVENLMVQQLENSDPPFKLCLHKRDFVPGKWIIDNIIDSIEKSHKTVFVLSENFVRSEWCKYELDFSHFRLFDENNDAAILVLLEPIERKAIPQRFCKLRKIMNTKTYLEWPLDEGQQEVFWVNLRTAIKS

CCCCCCCCCCCCCCCC(=O)OCC(CSC[C@H](N)C(=O)Nc1ccc(Cn2c(O)nc3c(N)nc(NCCCC)nc32)cc1)OC(=O)CCCCCCCCCCCCCCC (mixture of isomers) [CL401, (R)-3-(2-amino-3-(4-((6-amino-2-(butylamino)-8-hydroxy-9H-purin-9-yl)methyl)phenylamino)-3-oxopropylthio)propane-1,2-diyl dipalmitate]
ability to activate TLR7 receptors (human TLR7) [1]: activate TLR7 receptors
ability to activate TLR2 receptor (human TLR2) [2]: activate TLR2 receptor
ability to activate TLR2 receptor (murine TLR2) [3]: activate TLR2 receptor
